According to US6693120B1, “Spray drying of thrombin inhibitors” (Abbott GmbH & Co. KG, priority 1999, dated 2004):

Key:
Assay type in all cases: physicochemical
[1] = Storage stability at 70° C., 1 bar in an open vessel (HPLC)
[2] = Hygroscopicity: weight gain on storage in desiccators at constant humidity; design: unit not given here; details: vacuum-dried
Description: To determine the hygroscopicity, samples of the dry active substance are stored in desiccators in which a constant humidity has been set by saturated salt solutions, at constant temperature. The weight change is determined by weighing at intervals of a few days. The weight gain is determined by the following formula: [formula]

[3] = HPLC content of the active substance after drying

In the case of “N-((Hydroxycarbonyl)methylen)-(R)-cyclohexylalanyl-(S)-3,4-dehydroproline 6-Amidino-3-picolinylamide Dihydrochloride [Betaine × 2HCl]”, the “active substance content based on initial active substance content” value (“active substance content based” below) ([1]; 0 days) is reported as 100 HPLC % areas, the “active substance content based” value ([1]; 7 days) is reported as 99.7 HPLC % areas and the “active substance content based” value ([1]; 14 days) is reported as 99.7 HPLC % areas.

For “N-((Hydroxycarbonyl)methylene)-(R)-cyclohexylalanyl-(S)-3,4-dehydroproline 6-Amidino-3-Picoli-nylamide [Betaine (n = 0)]”, the “active substance content based” value ([1]; 0 days) was 100 HPLC % areas, the “active substance content based” value ([1]; 7 days) was 92.5 HPLC % areas and the “active substance content based” value ([1]; 14 days) was 88.6 HPLC % areas.

For “N-((Hydroxycarbonyl)methylene)-(R)-cyclohexylalanyl-(S)-3,4-dehydroproline 6-Amidino-3-picolinylamide Hydrochloride [Betaine × HCl]”, the weight gain ([2]; 45% R.H., 0 days) was 0, the weight gain ([2]; 45% R.H., 3 days) was 0.28 and the weight gain ([2]; 45% R.H., 6 days) was 0.31. For the same substance, the weight gain ([2]; 45% R.H., 9 days) was 0.26, the weight gain ([2]; 45% R.H., 14 days) was 0.23 and the weight gain ([2]; 45% R.H., 21 days) was 0.26. For the same substance, the weight gain ([2]; 65% R.H., 0 days) was 0, the weight gain ([2]; 65% R.H., 3 days) was 3.50 and the weight gain ([2]; 65% R.H., 6 days) was 3.86. The weight gain ([2]; 65% R.H., 9 days) was 3.59, the weight gain ([2]; 65% R.H., 14 days) was 3.54 and the weight gain ([2]; 65% R.H., 21 days) was 3.45. It also gave a weight gain ([2]; 75% R.H., 0 days) of 0, a weight gain ([2]; 75% R.H., 3 days) of 7.60 and a weight gain ([2]; 75% R.H., 6 days) of 9.31. For the same substance, the weight gain ([2]; 75% R.H., 9 days) was 7.98, the weight gain ([2]; 75% R.H., 14 days) was 7.84 and the weight gain ([2]; 75% R.H., 21 days) was 7.86. The weight gain ([2]; 86% R.H., 0 days) was 0, the weight gain ([2]; 86% R.H., 3 days) was 15.51 and the weight gain ([2]; 86% R.H., 6 days) was 20.23. It also gave a weight gain ([2]; 86% R.H., 9 days) of 16.66, a weight gain ([2]; 86% R.H., 14 days) of 16.61 and a weight gain ([2]; 86% R.H., 21 days) of 16.14. The weight gain ([2]; 93% R.H., 0 days) was 0, the weight gain ([2]; 93% R.H., 3 days) was 19.73 and the weight gain ([2]; 93% R.H., 6 days) was 20.34. The weight gain ([2]; 93% R.H., 9 days) was 18.97, the weight gain ([2]; 93% R.H., 14 days) was 19.11 and the weight gain ([2]; 93% R.H., 21 days) was 18.78. The “active substance content based” value ([1]; 0 days) was 100 HPLC % areas, the “active substance content based” value ([1]; 7 days) was 98.5 HPLC % areas and the “active substance content based” value ([1]; 14 days) was 97.5 HPLC % areas. For the same substance, the “HPLC content of the active substance in % areas” value ([3]; spray dried) was 98.5%, the byproducts ([3]; spray dried) was “no additional” and the “HPLC content of the active substance in % areas” value ([3]; vacuum dried (60° C./12 h)) was 97.8%. The byproducts ([3]; vacuum dried (60° C./12 h)) was “additional byproducts”.
